Data set [1] deals with T1, human cloned 5-HT6 receptors (Homo sapiens, UniProt P50406).
T1 construct: expressed in transfected cells; host or cells: HeLa cells
The data set can be described thus: 5-HT6 binding affinity ([3H]-LSD displacement, membranes of Hela cells). Here is the method: The affinity of test compounds for the serotonin 5-HT6 receptor is evaluated in the following manner. Cultured Hela cells expressing human cloned 5-HT6 receptors are harvested and centrifuged at low speed (1,000×g) for 10.0 min to remove the culture media. The harvested cells are suspended in half volume of fresh physiological phosphate buffered saline solution and recentrifuged at the same speed. This operation is repeated. The collected cells are then homogenized in ten volumes of 50 mM Tris.HCl (pH 7.4) and 0.5 mM EDTA. The homogenate is centrifuged at 40,000×g for 30.0 min and the precipitate is collected. The obtained pellet is resuspended in 10 volumes of Tris.HCl buffer and recentrifuged at the same speed. The final pellet is suspended in a small volume of Tris.HCl buffer and the tissue protein content is determined in aliquots of 10-25 μl volumes. Bovine Serum Albumin is used as the standard in the protein determination according to the method described in Lowry et al., J. Biol. Chem., 193:265 (1951). The volume of the suspended cell membranes is adjusted to give a tissue protein concentration of 1.0 mg/ml of suspension. The prepared membrane suspension (10 times concentrated) is aliquoted in 1.0 ml volumes and stored at −70° C. until used in subsequent binding experiments.
Binding experiments are performed in a 96 well microtiter plate format, in a total volume of 200 μl. […] The test compounds are added in 20.0 μl volume.
The reaction is allowed to proceed in the dark for 120 min at room temperature, at which time, the bound ligand-receptor complex is filtered off on a 96 well unifilter with a Packard Filtermate® 196 Harvester. The bound complex caught on the filter disk is allowed to air dry and the radioactivity is measured in a Packard TopCount® equipped with six photomultiplier detectors, after the addition of 40.0 μl Microscint®-20 scintillant to each shallow well. The unifilter plate is heat-sealed and counted in a PackardTopCount® with a tritium efficiency of 31.0%.
Binding in the presence of varying concentrations of test compound is expressed as a percentage of specific binding in the absence of test compound. The results are plotted as log % bound versus log concentration of test compound. […] A linear regression line of data points is plotted, from which the IC50 value is determined and the Ki value is determined based upon the following equation: Ki=IC50/(1+L/KD) where L is the concentration of the radioactive ligand used and KD is the dissociation constant of the ligand for the receptor, both expressed in nM.

The mark [2] stands for this setting: [3H]-LSD 3.0 nM, Hela cell membranes expressing human cloned 5-HT6 receptors, 120 min at room temperature, read-out: 5-HT6 Binding Ki.

The structures appear in SMILES notation. Structures can show the parent of a compound that is named as a salt. Where two headings read alike, the source gives them in different places.

T1 sequence (P50406 whole entry): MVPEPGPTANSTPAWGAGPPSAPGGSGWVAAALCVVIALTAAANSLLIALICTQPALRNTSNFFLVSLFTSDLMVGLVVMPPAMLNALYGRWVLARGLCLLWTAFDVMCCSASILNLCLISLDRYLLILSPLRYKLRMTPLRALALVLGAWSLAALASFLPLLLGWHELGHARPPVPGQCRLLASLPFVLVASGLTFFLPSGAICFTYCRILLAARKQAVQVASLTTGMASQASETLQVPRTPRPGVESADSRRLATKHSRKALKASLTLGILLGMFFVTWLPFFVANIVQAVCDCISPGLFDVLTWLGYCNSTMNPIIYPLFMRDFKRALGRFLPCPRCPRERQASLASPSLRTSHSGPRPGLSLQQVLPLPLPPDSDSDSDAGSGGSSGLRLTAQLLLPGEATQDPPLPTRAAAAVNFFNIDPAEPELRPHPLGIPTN

For `O=S(=O)(c1cn(C2CCCNC2)c2ccccc12)c1cccc2cccnc12` (stereo not drawn) [Example 15], the melting point – broadly, the temperature, or range, at which the solid turns liquid – was > 195 °C (dec.). Also, in data set [1] (setting [2]), the Ki (usually the dissociation constant of the complex between target and ligand, obtained from inhibition or displacement) stood at 6 nM.

The compound `COc1ccc2c(c1)c(S(=O)(=O)c1cccc(F)c1)cn2C1CCCN(C)C1` (stereo not drawn) [Example 19] had a melting point of 262 to 265 °C. In addition, in data set [1] (setting [2]), the inhibition constant (Ki) amounted to 68 nM.

In the case of `O=S(=O)(c1ccccc1)c1cn(C2CCCNC2)c2ccccc12` (stereo not drawn) [Example 9, 3-(Phenylsulfonyl)-1-(piperidin-3-yl)-1H-indole Hydrochloride], in data set [1] (setting [2]), the Ki amounted to 13 nM.

Regarding `O=S(=O)(c1cccc(F)c1)c1cn(C2CCCNC2)c2ccc(Cl)cc12` (stereo not drawn) [Example 22], the inhibition constant Ki in data set [1] (setting [2]) was 29 nM.

Take `CN1CCCC(n2cc(S(=O)(=O)c3cccc(F)c3)c3cc(Cl)ccc32)C1` (stereo not drawn) [Example 23]: the melting point lay within 242 to 245 °C. Besides, the Ki in data set [1] (setting [2]) came to 62 nM.

The compound `O=S(=O)(c1ccccc1)c1cn(C2CCN(Cc3ccccc3)CC2)c2ccccc12` [Example 12] came in with a melting point of 288 to 291 °C. For the same compound, the Ki in data set [1] was 49 nM.

Turning to `O=S(=O)(c1ccccc1)c1cn(CC2CCNCC2)c2ccccc12` [Example 4, 3-(Phenylsulfonyl)-1-(Piperidin-4-ylmethyl)-1H-indole Hydrochloride], in data set [1] (setting [2]), the Ki stood at 27 nM.

Turning to `O=S(=O)(c1cccc(F)c1)c1cn(C2CCCNC2)c2ccc(F)cc12` (stereo not drawn) [Example 20], the Ki in data set [1] (setting [2]) was determined as 4 nM.

In the case of `COc1ccc2c(c1)c(S(=O)(=O)c1cccc(F)c1)cn2C1CCCNC1` (stereo not drawn) [Example 18], the melting point is 267 to 270 °C. Besides, in data set [1] (setting [2]), the Ki was 11 nM.

`O=S(=O)(c1cccc2ccccc12)c1cn(C2CCCNC2)c2ccccc12` (stereo not drawn) [Example 14]: the melting point was > 180 °C (dec.). Besides, the Ki in data set [1] (setting [2]) worked out at 21 nM.

`O=S(=O)(c1cccc(Cl)c1)c1cn(C2CCCNC2)c2ccccc12` (stereo not drawn) [Example 17]: the melting point is > 150 °C (dec.). Besides, the Ki in data set [1] (setting [2]) came out at 5 nM.

As for `O=S(=O)(c1ccccc1)c1cn(C2CCCN(Cc3ccccc3)C2)c2ccccc12` (stereo not drawn) [Example 8, 1-(1-Benzylpiperidin-3-yl)-3-(phenylsulfonyl)-1H-indole], the inhibition constant (Ki) in data set [1] (setting [2]) is 122 nM.

`O=S(=O)(c1ccccc1)c1cn(C2CCNCC2)c2ccccc12` [Example 13] registered a melting point of 294 to 297 °C. In data set [1] (setting [2]), the Ki was 91 nM.

Source of the values: patent US7589108B2, “1-Heterocyclylalkyl-3-sulfonylindole or -indazole derivatives as 5-hydroxytryptamine-6 ligands” (Wyeth, priority 2002, dated 2009).
